This is an account of results in ChEMBL document CHEMBL1287646, “Chemometric modeling of free radical scavenging activity of flavone derivatives” (Eur J Med Chem, 2010).

The assay has as its system Radical scavenging activity. Briefly: Antioxidant activity assessed as DPPH radical scavenging activity. It is filed as functional. Background: Loss of DPPH colour is used to gauge radical scavenging.
As to `COc1cc(CC(=O)c2cc(OC)c(O)cc2O)ccc1O`, the ED50 was determined as 129 µM.

As for `Cc1c(O)cc(C(=O)Cc2ccc(O)c(O)c2)c(O)c1C`, the ED50 was 18 µM.

`COc1cc(CC(=O)c2ccc(O)cc2O)ccc1O`: the ED50 came out at 180 µM.

Regarding `O=c1c(-c2ccccc2)coc2c(O)c(O)ccc12`, the ED50 came to 29 µM.

Consider `COc1cc(CC(=O)c2cc(O)c(C)cc2O)ccc1O`, for which the ED50 was 22 µM.

In the case of `COc1cc(O)c(C(=O)C(C)c2ccccc2)cc1O` (stereo not given), the ED50 was 48 µM.

Regarding `Cc1ccc2c(c1O)OCC(c1ccccc1)C2` (stereo not given), the ED50 is 61 µM.

`O=c1c(-c2ccc(O)cc2)coc2c(O)c(O)ccc12`: the ED50 came out at 34 µM.

For `COc1cc(O)c(C(=O)C(C)c2ccc(O)cc2)cc1O` (stereo not given), the ED50 worked out at 45 µM.

For `Cc1cc(O)c(C(=O)Cc2ccc(O)c(O)c2)cc1O`, the ED50 amounted to 20 µM.

On to `Oc1ccc(C2COc3c(ccc(O)c3O)C2)cc1` (stereo not given), for which the ED50 is 37 µM.

For the molecule `COc1ccc(-c2coc3cc(O)c(O)cc3c2=O)cc1`, the ED50 was 29 µM.

Take `O=C(Cc1ccccc1)c1ccc(O)c(O)c1O`: the ED50 was 32 µM.

With `COc1cc(CC(=O)c2ccc(OC)c(O)c2O)ccc1O`, the ED50 was found to be 28 µM.

Regarding `COc1ccc(CC(=O)c2cc(O)c(C)c(C)c2O)cc1`, the ED50 came out at 93 µM.

As for `COc1cc(-c2coc3cc(O)ccc3c2=O)ccc1O`, the ED50 was 805 µM.

In the case of `Oc1ccc2c(c1)OCC(c1ccc(O)c(O)c1)C2` (stereo not given), the ED50 amounted to 37 µM.

For `COc1cc(-c2coc3c(O)c(OC)ccc3c2=O)ccc1O`, the ED50 amounted to 228 µM.

As for `COc1ccc2c(=O)c(-c3ccccc3)coc2c1O`, the ED50 was 812 µM.

As for `COc1ccc(C2COc3c(ccc(OC)c3O)C2)cc1` (stereo not given), the ED50 stood at 224 µM.

Turning to `Cc1c(O)cc(C(=O)Cc2ccccc2)c(O)c1C`, the ED50 was 42 µM.

Regarding `COc1cc2occ(-c3ccc(O)c(O)c3)c(=O)c2cc1O`, the ED50 amounted to 36 µM.

Take `COc1ccc(CC(=O)c2cc(O)c(O)cc2O)cc1`: the ED50 is 32 µM.

`COc1cc2c(cc1O)OCC(c1ccc(O)cc1)C2` (stereo not given): the ED50 was found to be 26 µM.

Consider `COc1ccc(-c2coc3cc(O)c(OC)cc3c2=O)cc1`, for which the ED50 stood at 663 µM.

`O=C(Cc1ccc(O)c(O)c1)c1ccc(O)c(O)c1O`: the ED50 turned out to be 12 µM.

As for `O=C(Cc1ccc(O)cc1)c1cc(O)c(O)cc1O`, the ED50 was 27 µM.

In the case of `COc1cc(-c2coc3cc(C)c(O)cc3c2=O)ccc1O`, the ED50 is 232 µM.

As to `COc1ccc(CC(=O)c2cc(O)c(OC)cc2O)cc1`, the ED50 is 31 µM.

As for `Oc1ccc(C2COc3c(ccc(O)c3O)C2)cc1O` (stereo not given), the ED50 stood at 22 µM.

With `Cc1c(O)cc2c(c1C)OCC(c1ccccc1)C2` (stereo not given), the ED50 came to 81 µM.

Regarding `COc1ccc(C(=O)Cc2ccccc2)c(O)c1O`, the ED50 is 20 µM.

Regarding `COc1cc(-c2coc3cc(OC)c(O)cc3c2=O)ccc1O`, the ED50 came to 404 µM.

`CC(C(=O)c1ccc(O)c(O)c1O)c1ccccc1` (stereo not given): the ED50 was 23 µM.

`O=c1c(-c2ccccc2)coc2cc(O)c(O)cc12`: the ED50 is 44 µM.

Take `Cc1ccc2c(=O)c(-c3ccc(O)c(O)c3)coc2c1O`: the ED50 is 46 µM.

With `COc1ccc(CC(=O)c2cc(O)c(C)cc2O)cc1`, the ED50 was 23 µM.

On to `COc1ccc(C2COc3cc(C)c(O)cc3C2)cc1` (stereo not given), for which the ED50 amounted to 45 µM.

For `COc1cc2c(cc1O)CC(c1ccc(OC)c(OC)c1)CO2` (stereo not given), the ED50 was 56 µM.

As for `COc1ccc(C(=O)Cc2ccc(O)c(O)c2)c(O)c1O`, the ED50 is 20 µM.

With `COc1cc(O)c(C(=O)Cc2ccc(O)c(O)c2)cc1O`, the ED50 turned out to be 19 µM.

For the molecule `COc1cc2c(cc1O)OCC(c1ccccc1)C2` (stereo not given), the ED50 is 29 µM.

As to `COc1cc(-c2coc3c(O)c(C)ccc3c2=O)ccc1O`, the ED50 worked out at 476 µM.

Consider `COc1cc2c(cc1O)CC(c1ccccc1)CO2` (stereo not given), for which the ED50 was found to be 49 µM.

With `COc1cc(CC(=O)c2cc(OC)c(OC)cc2O)ccc1O`, the ED50 turned out to be 84 µM.

With `COc1cc2occ(-c3ccc(O)c(O)c3)c(=O)c2cc1OC`, the ED50 came out at 46 µM.

Turning to `COc1ccc(C2COc3c(ccc(C)c3O)C2)cc1` (stereo not given), the ED50 is 52 µM.

Consider `Cc1c(O)cc2c(=O)c(-c3ccc(O)c(O)c3)coc2c1C`, for which the ED50 is 85 µM.

Turning to `COc1cc(-c2coc3cc(O)c(OC)cc3c2=O)ccc1O`, the ED50 turned out to be 655 µM.

Turning to `O=C(Cc1ccc(O)cc1)c1ccc(O)c(O)c1O`, the ED50 turned out to be 22 µM.

For the molecule `CC(C(=O)c1ccc(O)c(O)c1O)c1ccc(O)cc1` (stereo not given), the ED50 was 18 µM.

Consider `Cc1ccc2c(c1O)OCC(c1ccc(O)cc1)C2` (stereo not given), for which the ED50 amounted to 111 µM.

In the case of `COc1ccc(-c2coc3c(O)c(O)ccc3c2=O)cc1`, the ED50 was found to be 51 µM.

On to `COc1ccc2c(c1O)OCC(c1ccccc1)C2` (stereo not given), for which the ED50 was 168 µM.

With `COc1ccc(C2COc3cc(OC)c(O)cc3C2)cc1` (stereo not given), the ED50 is 60 µM.

With `Oc1ccc2c(c1O)OCC(c1ccccc1)C2` (stereo not given), the ED50 is 37 µM.

`COc1ccc(C2COc3cc(O)cc(O)c3C2)cc1` (stereo not given): the ED50 stood at 26 µM.

As to `Cc1cc2occ(-c3ccc(O)c(O)c3)c(=O)c2cc1O`, the ED50 came out at 23 µM.

As to `O=C(Cc1ccc(O)c(O)c1)c1ccc(O)cc1O`, the ED50 was 20 µM.

`COc1cc(CC(=O)c2ccc(O)c(O)c2O)ccc1O`: the ED50 is 25 µM.

Turning to `COc1cc(-c2coc3c(O)c(O)ccc3c2=O)ccc1O`, the ED50 was 33 µM.

Regarding `Cc1cc(O)c(C(=O)Cc2ccccc2)cc1O`, the ED50 is 43 µM.

On to `COc1ccc(CC(=O)c2ccc(OC)c(O)c2O)cc1`, for which the ED50 stood at 44 µM.

As for `O=c1c(-c2ccc(O)c(O)c2)coc2c(O)c(O)ccc12`, the ED50 was found to be 16 µM.

For the molecule `COc1ccc2c(=O)c(-c3ccc(O)c(O)c3)coc2c1O`, the ED50 was found to be 53 µM.

In the case of `COc1cc(O)c(C(=O)Cc2ccccc2)cc1O`, the ED50 stood at 51 µM.

For the molecule `COc1ccc(-c2coc3c(O)c(OC)ccc3c2=O)cc1`, the ED50 amounted to 489 µM.

Regarding `COc1ccc(CC(=O)c2ccc(O)c(O)c2O)cc1OC`, the ED50 was 63 µM.

As for `Cc1c(O)cc(C(=O)Cc2ccc(O)cc2)c(O)c1C`, the ED50 is 33 µM.

Regarding `COc1cc(-c2coc3cc(OC)c(OC)cc3c2=O)ccc1O`, the ED50 was found to be 722 µM.

Turning to `O=C(Cc1ccccc1)c1cc(O)c(O)cc1O`, the ED50 stood at 29 µM.

As to `Cc1cc(O)c(C(=O)Cc2ccc(O)cc2)cc1O`, the ED50 stood at 31 µM.

In the case of `Oc1ccc(C2COc3cc(O)cc(O)c3C2)cc1` (stereo not given), the ED50 was 32 µM.

As to `COc1ccc(CC(=O)c2ccc(O)c(O)c2O)cc1`, the ED50 was found to be 38 µM.

Regarding `COc1cc2c(cc1O)CC(c1ccc(O)cc1)CO2` (stereo not given), the ED50 came out at 62 µM.

On to `COc1cc2c(cc1OC)OCC(c1ccc(O)c(O)c1)C2` (stereo not given), for which the ED50 was 69 µM.

In the case of `COc1ccc(C2COc3c(ccc(O)c3O)C2)cc1` (stereo not given), the ED50 was found to be 36 µM.

As to `O=c1c(-c2ccc(O)c(O)c2)coc2cc(O)ccc12`, the ED50 was 30 µM.

Turning to `COc1ccc(C2COc3cc(O)c(OC)cc3C2)cc1` (stereo not given), the ED50 worked out at 26 µM.

Regarding `COc1cc(O)c(C(=O)Cc2ccc(OC)c(OC)c2)cc1O`, the ED50 is 39 µM.

In the case of `COc1cc(CC(=O)c2cc(O)c(OC)cc2O)ccc1O`, the ED50 came to 26 µM.

Turning to `COc1cc(O)c(C(=O)Cc2ccc(O)cc2)cc1O`, the ED50 is 38 µM.

With `COc1cc(O)c(C(=O)Cc2ccc(O)c(O)c2)cc1OC`, the ED50 stood at 25 µM.

For the molecule `O=c1c(-c2ccc(O)cc2)coc2cc(O)c(O)cc12`, the ED50 is 29 µM.

`COc1ccc(C2COc3c(ccc(O)c3O)C2)cc1OC` (stereo not given): the ED50 worked out at 105 µM.
